Active and inactive are the calls of the source. No cut-off for these calls is given here.
Experiments:
RAW264.7 [1] = assay: Cytotoxicity against mouse RAW264.7 cells assessed as inhibition of cell growth at 2 uM incubated for 24 hrs by MTT assay; format: toxicity, cell-based; conditions: raw264.7, 24 h
RAW264.7 [2] = assay: Anti-inflammatory activity in LPS-induced mouse RAW264.7 cells assessed as inhibition of NO levels incubated for 24 hrs; format: functional, cell-based; conditions: RAW264.7, 24 h
RAW264.7 [3] = assay: Anti-inflammatory activity in LPS-induced mouse RAW264.7 cells assessed as inhibition of TNF-alpha level at 2 uM incubated for 24 hrs by ELISA relative to control; format: functional
RAW264.7 [4] = assay: Anti-inflammatory activity in LPS-induced mouse RAW264.7 cells assessed as inhibition of IL-6 level at 2 uM incubated for 24 hrs by ELISA relative to control; format: functional
RAW264.7 [5] = assay: Anti-inflammatory activity in LPS-induced mouse RAW264.7 cells assessed as inhibition of IL-1beta level at 2 uM incubated for 24 hrs by ELISA relative to control; format: functional
RAW264.7 [6] = assay: Inhibition of MAPK signaling pathway in LPS-induced mouse RAW264.7 cells assessed as reduction in p38 phosphorylation at 0.2 uM incubated for 24 hrs by Western blot analysis; format: cell-based
RAW264.7 [7] = assay: Inhibition of MAPK signaling pathway in LPS-induced mouse RAW264.7 cells assessed as reduction in ERK phosphorylation at 0.2 uM incubated for 24 hrs by Western blot analysis; format: cell-based
RAW264.7 [8] = assay: Inhibition of MAPK signaling pathway in LPS-induced mouse RAW264.7 cells assessed as reduction in SAPK/JNK phosphorylation at 0.2 uM incubated for 24 hrs by Western blot analysis; format: cell-based
[9] = Downregulation of MAPK protein expression in LPS-induced mouse RAW264.7 cells at 0.2 uM incubated for 24 hrs by Western blot analysis relative to control; format: functional
RAW264.7 [10] = assay: Inhibition of MAPK signaling pathway in LPS-induced mouse RAW264.7 cells assessed as reduction in phosphorylated p38 level at 10 uM incubated for 24 hrs by Western blot analysis; format: cell-based
RAW264.7 [11] = assay: Inhibition of MAPK signaling pathway in LPS-induced mouse RAW264.7 cells assessed as reduction in phosphorylated SAPK/JNK level at 10 uM incubated for 24 hrs by Western blot analysis; format: cell-based
RAW264.7 [12] = assay: Inhibition of NFkappaB pathway activation in LPS-induced mouse RAW264.7 cells assessed as inhibition of p65 phosphorylation at 0.2 uM incubated for 24 hrs by Western blot analysis; format: cell-based
RAW264.7 [13] = assay: Inhibition of NFkappaB pathway activation in LPS-induced mouse RAW264.7 cells assessed as inhibition of IKBalpha phosphorylation at 10 uM incubated for 24 hrs by Western blot analysis; format: cell-based
RAW264.7 [14] = assay: Inhibition of NFkappaB pathway activation in LPS-induced mouse RAW264.7 cells assessed as reduction in phosphorylated p65 level at 0.2 to 10 uM incubated for 24 hrs by Western blot analysis relative to control; format: cell-based; conditions: dose 0.2-10 µM
RAW264.7 [15] = assay: Inhibition of NFkappaB pathway activation in LPS-induced mouse RAW264.7 cells assessed as reduction in phosphorylated IKBalpha level at 10 uM incubated for 24 hrs by Western blot analysis relative to control; format: cell-based

Q: With `C=CCOc1ccccc1C[C@H]1C(=O)N(C)C(=O)c2nc3ccccc3c(=O)n21` as the molecule, how does the Activity (RAW264.7 [1]) read?
A: Non-toxic

Q: What about the IC50 (RAW264.7 [2]) of the same molecule?
A: 0.5 µM

Q: And the inhibition at 2 µM (RAW264.7 [3])?
A: 25.6%

Q: And the inhibition at 2 µM (RAW264.7 [4])?
A: 54.5%

Q: What about the inhibition at 2 µM (RAW264.7 [5]) of the same molecule?
A: 92.9%

Q: What about the inhibition (RAW264.7 [6]) of the same molecule?
A: Active

Q: What about the inhibition (RAW264.7 [7]) of the same molecule?
A: Active

Q: And the inhibition (RAW264.7 [8])?
A: Active

Q: And the Activity [9]?
A: >30%

Q: What about the inhibition (RAW264.7 [10]) of the same molecule?
A: Active; Reduction In Cellular P-P38 Level Was Almost Close To Untreated Control

Q: And the inhibition (RAW264.7 [11])?
A: Active; Reduction In Cellular P-Sapk/Jnk Level Was Almost Close To Untreated Control

Q: What about the inhibition (RAW264.7 [12]) of the same molecule?
A: Active

Q: And the inhibition (RAW264.7 [13])?
A: Active

Q: And the inhibition (RAW264.7 [14])?
A: 50%

Q: What about the inhibition (RAW264.7 [15]) of the same molecule?
A: 59%

Reference: ChEMBL document CHEMBL6177967, “Semisynthesis and biological evaluation of 17-hydroxybrevianamide N derivatives as anti-inflammatory agents by mediating NF-κB and MAPK signaling pathways” (Eur J Med Chem, 2025)
